The text below walks through data of patent US20260216138A1, “IDENTIFICATION OF OTUD7B INHIBITOR 7BI AND ITS APPLICATION IN REDUCING GROWTH OF NSCLC AND LEUKEMIA CELLS” (The University of North Carolina at Chapel Hill, priority 2023, published 2026).

The subject of experiment [1] is OTUD7B-induced GβL deubiquitination. Description: In-cell GβL ubiquitination assay (Ni-NTA pulldown, HEK293 cells). Format: cell-based. The conditions noted are these: HEK293 cells transfected with DNA constructs, compound for 16 hrs; listed as #19. As for the experimental part:
FIGS. 2A-2L show results of validation for OTUD7B small molecule inhibitors in cells. (A-D) IB analyses of WCL from indicated NSCLC cells treated with […] of indicated compounds for 16 hrs. (E, F) IB analyses of WCL from either A549 (E) or HEK293 (F) cells treated with indicated doses of compound #19 for 16 hrs. (G) IB analyses of Ni-NTA pulldowns and WCL from HEK293 cells transfected with indicated DNA constructs. Where indicated, cells were treated with […] of indicated compounds for 16 hrs before cell collection. (H-L) Quantifications of cell viability by MTT assays in A549 cells treated with indicated doses of indicated compounds for 72 hrs. Error bars were calculated as mean+/−SD, n=3. *p<0.05 (one-way ANOVA test).

A further experiment deals with T1, OTUD7B (Homo sapiens, UniProt Q6GQQ9).
T1 construct: OTUD7B (residues 56-446); GST (N, cleaved yes); made in house; host or cells: E. coli BL21-Codon Plus (DE3)-RIL
T1 sequence (Q6GQQ9 56-446): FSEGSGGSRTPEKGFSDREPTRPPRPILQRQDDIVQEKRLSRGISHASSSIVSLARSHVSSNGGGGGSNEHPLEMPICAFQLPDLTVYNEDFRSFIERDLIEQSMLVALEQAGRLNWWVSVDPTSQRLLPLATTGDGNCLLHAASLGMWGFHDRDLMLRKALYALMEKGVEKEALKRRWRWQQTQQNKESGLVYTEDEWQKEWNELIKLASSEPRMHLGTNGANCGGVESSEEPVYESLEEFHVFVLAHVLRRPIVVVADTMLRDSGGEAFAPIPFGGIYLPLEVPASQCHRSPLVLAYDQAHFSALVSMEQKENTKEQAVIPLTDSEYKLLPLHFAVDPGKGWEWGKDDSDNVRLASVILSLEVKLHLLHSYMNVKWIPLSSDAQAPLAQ
Description: In vitro OTUD7B deubiquitination assay, K11-linked di-ub cleavage. Format: biochemical. An excerpt: OTUD7B (residues 56-446), OTUD7A (residues 1-462), USP21 (residues 196-565), and USP9X (residues 1551-1970) proteins were expressed in E. Coli BL21-Codon Plus (DE3)-RIL cells. Through an N-terminal GST tag, the DUBs were purified by affinity chromatography using glutathione sepharose 4B (GS4B) resin. Following the liberation of the DUB from the GST tag. the DUBs were subjected to size exclusion chromatography (SEC). To form the K11-linked di-ub, individual ubiquitins (K11R-substituted donor Ub and ΔGG acceptor ubiquitin) were purified and fluorescently-labeled on an N-terminal cysteine using either Cy3- (donor) or Cy5-maleimide (acceptor). The different ubiquitins were then added to a mixture containing UBA1, UBE2S, and MgATP to form di-ub. After an overnight incubation at room temperature, UBE2S was removed by cation-exchange chromatography and the di-ub was purified by SEC. These proteins were used to monitor DUB activity in the presence or absence of the various inhibitors. The inhibitors were incubated with DUBs in a reaction buffer (20 mM Hepes pH=8.0, 200 mM NaCl, 0.25 mg/mL BSA and 0.005% Tween-20) for 5 min at room temperature and then 0.5 uM fluorescently-labeled di-ub (K11-linked) was added to start the reaction. 5×SDS-PAGE loading buffer was used to quench the reaction at the indicated time point. […] Mono-ubiquitin was quantified to generate an IC50 value. […]

For another experiment, the system named is K562 cells. Description: Leukemia cell proliferation, K562. Format: cell-based. Conditions: 72 hrs. Here is the method:
(§1) 2,000 cells from indicated NSLC cell lines were seeded into each well of 96-well plates. Cell viability was measured 3 days post-treatment using MTT assays following manufacturer's instruction. For cell viability assays with inhibitor treatment, 2,000 cells from indicated NSLC and HEK293 cell lines were seeded in 96-well plate. Inhibitor was added the next day at indicated concentration and cell viability was measured after 3-day treatment. For cell proliferation assays in THP1, K562 and HL60 cell lines, 1×10^6 cells from each indicated cell line were seeded in 12.5 cm2 cell culture flask and cells were counted by hemocytometer under microscope at indicated time to monitor cell proliferation. To test inhibitor effects on THP1, K562 and HL60 cell growth, 2×10^5 cells were seeded in 12.5 cm2 cell culture flask. Inhibitor was added the next day at indicated concentrations and cell number was counted after 3 days treatment. Three independent experiments were performed to generate error bars.

Another experiment relates to NSCLC cells. Description: NSCLC cell growth. Format: cell-based. The conditions noted are these: read-out: IC50 values to suppress NSCLC cell growth. As for the experimental part: 500 cells from OTUD7B depleted A549 cells were seeded into each well of 6-well plates and cultured in the 37° C. incubator with 5% CO2 for 10-15 days until formation of visible colonies. Triplicates were performed. To test the effect of a given inhibitor on colony formation ability, 800 cells from A549, H520 and H1299 cell lines were seeded into each well of 6-well plates, respectively. Each inhibitor was added at indicated concentration the next day. Colonies were counted after 10 days of treatment. The colony staining method was as described. […] Colony numbers were counted manually. […]
as §1, with “For cell viability assays with inhibitor treatment, 2,000 cells from indicated NSLC and HEK293 cell lines were seeded in 96-well plate.” left out, “To test inhibitor effects on THP1, K562 and HL60 cell growth, 2×10^5 cells were seeded in 12.5 cm2 cell culture flask.” left out, “Three independent experiments were performed to generate error bars.” left out

Molecules are shown by their SMILES. Entries after “also recorded” stand apart in the source; their conditions may differ.

`Cc1cc(NC(=O)c2cnn(C)c2C(=O)Nc2cc(C)nn2C2CCCC2)n(C2CCCC2)n1` [7Bi]: in experiment [1], the “blocking OTUD7B-induced GβL deubiquitination in cells” value was “partially blocked OTUD7B-induced GβL deubiquitination; also recorded: able to block OTUD7B-mediated GβL deubiquitination in cells”. In addition, the IC50 at OTUD7B (0.5 uM K11-diub and 5 nM active OTUD7B, 10 min, read-out: IC50, OTUD7B catalytic activity) was about 40 µM; in the experiment with NSCLC cells, about 2.5 µM. Besides, the “suppression of OTUD7B-mediated K11-diub cleavage by purified 7Bi” value at OTUD7B (HPLC purified 7Bi (~99% purity) compared with 90% purity) is reported as “retained its ability to suppress OTUD7B-mediated K11-diub cleavage in vitro”. In addition, in the experiment with K562 cells, the cell proliferation result is reported as “reduced proliferation”.
